Assay results published in US6696407B1, “Huntington's disease treatment comprising administering aldose reductase inhibitors to increase striatal CNTF” (The Regents of the University of California, priority 1997, dated 2004).
“Also recorded” adds a separate entry of the source.

B1: CNTF: member of the neuropoietic cytokine family, a protein of 200 amino acids (protein, UniProt P26441 1-200, looked up)
Ciliary neurotrophic factor: MAFTEHSPLTPHRRDLCSRSIWLARKIRSDLTALTESYVKHQGLNKNINLDSADGMPVASTDQWSELTEAERLQENLQAYRTFHVLLARLLEDQQVHFTPTEGDFHQAIHTLLLQVAAFAYQIEELMILLEYKIPRNEADGMPINVGDGGLFEKKLWGLKVLQELSQWTVRSIHDLRFISSHQTGIPARGSHYIANNKKM

What was measured:
CNTF = experiment: Striatal CNTF levels by ELISA; assay type: in vivo, rat; conditions: adult rats, oral 50 mg/kg/day for two months
Method: CNTF protein was determined with an ELISA that utilizes a monoclonal capture antibody which recognizes a non-C-terminal epitope on both rat and human CNTF (Regeneron, Tarrytown, N.Y.). The captured CNTF was recognized by a polyclonal rabbit anti-rCNTF reporter antibody. An alkaline phosphatase-tagged goat anti-rabbit IgG was used to generate the signal. In practice, 96-well Immulon plates were coated with capture antibody overnight, then blocked and washed. After overnight incubation of standards and samples, plates were washed and reporter antibody added. Following final washes, the reaction was developed using the GIBCO BRL ELISA amplification system substrate and amplifier. The reaction was stopped with 0.5 N H2SO4 and the plates read at two wavelengths (490 nm and 650 nm).
ARIs Toirestat and Ponalrestat were orally administered to adult rats at a dose of 50 mg/kg/day for two months as described in Example 1 and in Mizisin et al (1997) Diabetes 46: 647-652. For each rat, the left and right striatum were dissected and combined for homogenization in phosphate buffered saline. CNTF levels in extract preparations were then measured by ELISA, as described in Example 1. Four rats served as controls, and five rats each received Tolrestat and Ponalrestat. Five ELISA assays were run for each rat and one mean value derived for each rat.

[1] = Dittrich et al. (1994); cited from earlier work

Molecule | Increase in striatal CNTF activity level versus control group (CNTF) | Plasma half-life [1] [min]
COc1ccc2c(C(=S)N(C)CC(=O)O)cccc2c1C(F)(F)F [Tolrestat, N-[[6-methoxy-5-(trifluoromethyl)-1-naphthalenyl]thioxomethyl]-N-methylglycine] | significantly increased; also recorded: approximately two-fold | –
B1 | – | 2.9
